This is an account of results in patent publication US9096591B2, “Tetracyclic compounds” (Medivation Technologies, Inc., priority 2007, dated 2015).

Assay [1] deals with T1, human recombinant serotonin (5-Hydroxytryptamine) 5-HT2C receptor (Homo sapiens, UniProt P28335).
T1 construct: expressed in transfected cells; host or cells: CHO-K1 cells
T1 sequence (P28335 33-458): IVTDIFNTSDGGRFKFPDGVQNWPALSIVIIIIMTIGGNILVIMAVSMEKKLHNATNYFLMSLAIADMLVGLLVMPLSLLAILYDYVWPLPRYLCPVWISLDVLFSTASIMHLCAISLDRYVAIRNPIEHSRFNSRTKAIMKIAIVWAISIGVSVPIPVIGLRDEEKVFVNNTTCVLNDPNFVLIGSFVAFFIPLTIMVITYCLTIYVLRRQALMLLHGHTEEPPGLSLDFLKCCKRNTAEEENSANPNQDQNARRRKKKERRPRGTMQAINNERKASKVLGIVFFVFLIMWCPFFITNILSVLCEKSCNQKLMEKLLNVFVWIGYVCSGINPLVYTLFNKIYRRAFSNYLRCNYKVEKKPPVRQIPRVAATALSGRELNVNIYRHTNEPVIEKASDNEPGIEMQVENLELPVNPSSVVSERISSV
Put plainly: Serotonin 5-HT2C radioligand binding ([3H]Mesulergine). Set-up: Inhibition of ligand binding, Ser. 5-HT2C: concentration or dose not given beside the values. The settings on record: percent inhibition of specific binding. Here is the method: Compounds of the invention were incubated with 1 nM [^3H]Mesulergine for 60 minutes at 25° C. Non-specific binding was estimated in the presence of 1 μM Mianserin. Receptor proteins were filtered and washed, the filters were then counted to determine [^3H]Mesulergine specifically bound. […] Biochemical assay results are presented as the percent inhibition of specific binding in Table 6.

Assay [2] relates to adrenergic receptors α1D, α2A, α2B; serotonin receptor 5-HT6; dopamine receptor D2L. As to the kind of experiment: Classification of compounds (Type 1-4) from receptor binding and neurite outgrowth. From the text: Compounds of the invention that inhibit binding of a ligand to adrenergic receptors α1D, α2A, α2B and serotonin receptor 5-HT6 by at least about 80% as determined in a suitable assay such as the assays described herein can be classified as Type 1 compounds. […] In one variation, binding of a ligand to serotonin receptor 5-HT7 is at least about 80%. […] Weak inhibition of binding of a ligand to the histamine H1 receptor is permitted as agonists of this receptor have been implicated in stimulating memory as well as weight gain. In one variation, binding to histamine receptor H1 is inhibited by less than about 80%. […] Compounds that inhibit binding of a ligand to the dopamine D2L receptor by at least about 80% as determined in a suitable assay such as the assay described herein can be classified as Type 2 compounds.
In one variation, Type 1 compounds further inhibit binding of a ligand to dopamine receptor D2L by less than about 80% as determined in a suitable assay known in the art such as the assay described herein. […] In one variation, binding of a ligand to serotonin receptor 5-HT7, 5-HT2A and/or 5-HT2C is inhibited by at least about 80% as determined in a suitable assay such as the assays described herein. […] In one variation, binding of a ligand to histamine receptor H1 and/or H2 is inhibited by less than about 80% as determined by a suitable assay known in the art such as the assays described herein.
In one variation, biding to serotonin receptor 5-HT2A is inhibited by at least about 80% as determined in a suitable assay know in the art such as the assay described herein.

For assay [3], the target named is T2, human recombinant adrenergic α2A receptor (Homo sapiens, UniProt P08913).
T2 construct: expressed in transfected cells; host or cells: insect Sf9 cells
T2 sequence (P08913 1-465): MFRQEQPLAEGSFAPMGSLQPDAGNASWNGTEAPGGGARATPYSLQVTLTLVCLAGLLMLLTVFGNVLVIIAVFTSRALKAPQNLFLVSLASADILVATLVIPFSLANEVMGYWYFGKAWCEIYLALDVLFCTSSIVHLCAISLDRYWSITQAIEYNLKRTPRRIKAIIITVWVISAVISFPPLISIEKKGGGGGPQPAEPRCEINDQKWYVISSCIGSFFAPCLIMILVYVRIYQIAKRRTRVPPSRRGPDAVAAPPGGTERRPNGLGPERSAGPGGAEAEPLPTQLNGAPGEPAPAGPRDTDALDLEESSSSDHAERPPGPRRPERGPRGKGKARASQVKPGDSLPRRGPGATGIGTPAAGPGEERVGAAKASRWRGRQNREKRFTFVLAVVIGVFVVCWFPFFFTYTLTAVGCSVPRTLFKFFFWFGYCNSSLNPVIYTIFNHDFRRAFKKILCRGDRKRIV
Put plainly: Adrenergic α2A radioligand binding ([3H]MK-912). Set-up: Inhibition of ligand binding, Adren. alpha2A: concentration or dose not given beside the values. The settings on record: percent inhibition of specific binding. The gist of the method: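 Membranes from Sf9 cells expressing the receptor were incubated with 1 nM [3H]MK-912 for 60 minutes at 25° C in 50 mM Tris-HCl pH 7.4, 12.5 mM MgCl2, 2 mM EDTA. 10 μM WB-4101 defined non-specific binding. Values are percent inhibition of specific bound radioactivity after filtration.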

In assay [4] the target is T3, human recombinant serotonin (5-Hydroxytryptamine) 5-HT6 receptor (Homo sapiens, UniProt P50406).
T3 construct: expressed in transfected cells; host or cells: human HeLa cells
As to the kind of experiment: Serotonin 5-HT6 radioligand binding ([3H]LSD). As to conditions: percent inhibition of specific binding. More on the design: Inhibition of ligand binding, Ser. 5-HT6: concentration or dose not given beside the values. The source says: Receptor proteins were filtered and washed, the filters were then counted to determine [3H]LSD specifically bound. […] Biochemical assay results are presented as the percent inhibition of specific binding in Table 6.

Assay [5] addresses T4, Serotonin (5-Hydroxytryptamine) 5-HT7 (Homo sapiens, UniProt P34969).
T4 construct: expressed in transfected cells; host or cells: CHO cells
As to the kind of experiment: Serotonin 5-HT7 radioligand binding ([3H]LSD). Set-up: Inhibition of ligand binding, Ser. 5-HT7: concentration or dose not given beside the values. The settings on record: percent inhibition of specific binding. Here is the method: Lysergic acid diethylamide (LSD) for 2 hours at 25° C. […] Receptor proteins were filtered and washed, the filters were then counted to determine [^3H]LSD specifically bound. […] Biochemical assay results are presented as the percent inhibition of specific binding in Table 6.

T3 sequence (P50406 whole entry): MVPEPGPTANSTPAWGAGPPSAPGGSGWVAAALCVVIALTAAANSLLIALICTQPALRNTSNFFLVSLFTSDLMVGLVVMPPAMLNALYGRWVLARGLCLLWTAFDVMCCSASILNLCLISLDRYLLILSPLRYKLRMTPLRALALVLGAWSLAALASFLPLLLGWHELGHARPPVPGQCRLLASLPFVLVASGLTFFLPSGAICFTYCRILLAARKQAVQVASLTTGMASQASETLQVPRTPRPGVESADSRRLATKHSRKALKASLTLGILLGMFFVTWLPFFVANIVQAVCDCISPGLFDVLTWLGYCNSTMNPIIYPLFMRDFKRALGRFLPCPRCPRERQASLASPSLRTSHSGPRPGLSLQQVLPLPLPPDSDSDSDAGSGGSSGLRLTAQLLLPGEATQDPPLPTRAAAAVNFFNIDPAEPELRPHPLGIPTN
T4 sequence (P34969 whole entry): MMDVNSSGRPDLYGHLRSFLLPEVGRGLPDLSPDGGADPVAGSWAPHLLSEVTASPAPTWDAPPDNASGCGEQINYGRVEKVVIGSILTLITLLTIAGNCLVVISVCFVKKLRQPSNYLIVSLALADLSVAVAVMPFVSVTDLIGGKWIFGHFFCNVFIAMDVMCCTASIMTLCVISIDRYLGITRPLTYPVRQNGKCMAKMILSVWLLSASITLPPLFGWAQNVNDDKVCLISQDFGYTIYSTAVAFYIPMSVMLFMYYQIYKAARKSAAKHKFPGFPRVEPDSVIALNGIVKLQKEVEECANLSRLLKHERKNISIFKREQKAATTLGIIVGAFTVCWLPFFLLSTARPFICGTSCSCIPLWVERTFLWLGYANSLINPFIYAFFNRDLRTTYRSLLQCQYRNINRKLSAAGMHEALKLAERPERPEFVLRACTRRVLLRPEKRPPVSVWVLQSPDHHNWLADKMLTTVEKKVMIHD

Take `CN1CCc2c(c3cc(Cl)ccc3n2CCc2cncc(Cl)c2)C1` [Compound 444, 8-chloro-5-(2-(5-chloropyridin-3-yl)ethyl)-2,3,4,5-tetrahydro-2-methyl-1H-pyrido[4,3-b]indole]: the “Inhibition of ligand binding, Ser. 5-HT2C” value (“Inhibition … Ser. 5-HT2C” below) in assay [1] is given as 95%. The “compound type (classification by receptor binding profile and neurite outgrowth)” value (“compound type” below) in assay [2] is “Type one”. In addition, the “Inhibition of ligand binding, Adren. alpha2A” value (shortened to “Inhibition … Adren. alpha2A”) in assay [3] is 89%. In addition, in assay [4], the “Inhibition of ligand binding, Ser. 5-HT6” value is 96%.

`Cc1ccc2c(c1)c1c(n2CCc2cncc(Cl)c2)CCN(C)C1` [Compound 443, 5-(2-(5-chloropyridin-3-yl)ethyl)-2,3,4,5-tetrahydro-2,8-dimethyl-1H-pyrido[4,3-b]indole]: the “Inhibition … Ser. 5-HT2C” value in assay [1] was found to be 95%. For the same compound, the “compound type” value in assay [2] is given as “Type one”. Besides, the “Inhibition … Adren. alpha2A” value in assay [3] is reported as 87%. Also, the “Inhibition of ligand binding, Ser. 5-HT6” value in assay [4] is given as 96%.

Take `CCCc1ccc(CCn2c3c(c4cc(Cl)ccc42)CN(C)CC3)cn1` [Compound 476, 8-chloro-2,3,4,5-tetrahydro-2-methyl-5-(2-(6-propylpyridin-3-yl)ethyl)-1H-pyrido[4,3-b]indole]: the “Inhibition … Ser. 5-HT2C” value in assay [1] was determined as 96%. For the same compound, the “compound type” value in assay [2] is on record as “Type one”. Moreover, the “Inhibition … Adren. alpha2A” value in assay [3] came to 87%. Besides, the “Inhibition of ligand binding, Ser. 5-HT6” value in assay [4] is listed as 87%.

Consider `Cc1ccc(CCn2c3c(c4cc(Cl)ccc42)CN(C)CC3)cn1` [Compound 225, 8-chloro-2,3,4,5-tetrahydro-2-methyl-5-(2-(6-methylpyridin-3-yl)ethyl)-1H-pyrido[4,3-b]indole], for which, in assay [1], the “Inhibition … Ser. 5-HT2C” value was found to be 91%. In assay [2], the “compound type” value is given as “Type one”. In addition, in assay [3], the “Inhibition … Adren. alpha2A” value stood at 91%. For the same compound, the “Inhibition of ligand binding, Ser. 5-HT6” value in assay [4] was 81%.

Turning to `Cc1ccc(CCn2c3c(c4cc(Cl)c(F)cc42)CN(C)CC3)cn1` [Compound 404, 8-Chloro-7-fluoro-2-methyl-5-[2-(6-methyl-pyridin-3-yl)-ethyl]-2,3,4,5-tetrahydro-1H-pyrido[4,3-b]indole], the “Inhibition … Ser. 5-HT2C” value in assay [1] worked out at 78%. Moreover, the “compound type” value in assay [2] is given as “Type one”. In addition, the “Inhibition … Adren. alpha2A” value in assay [3] is listed as 94%. Further, the “Inhibition of ligand binding, Ser. 5-HT6” value in assay [4] came to 94%.

On to `CCc1ccc(CCn2c3c(c4cc(Cl)ccc42)CN(C)CC3)cn1` [Compound 371, 8-Chloro-5-[2-(6-ethyl-pyridin-3-yl)-ethyl]-2-methyl-2,3,4,5-tetrahydro-1H-pyrido[4,3-b]indole], for which, in assay [1], the “Inhibition … Ser. 5-HT2C” value turned out to be 87%. For the same compound, the “compound type” value in assay [2] is reported as “Type one”. In assay [3], the “Inhibition … Adren. alpha2A” value was found to be 89%. Moreover, in assay [4], the “Inhibition of ligand binding, Ser. 5-HT6” value stood at 88%.

Take `CCc1ccc2c(c1)c1c(n2CCc2ccc(C)nc2)CCN(C)C1` [Compound 357, 8-Ethyl-2-methyl-5-[2-(6-methyl-pyridin-3-yl)-ethyl]-2,3,4,5-tetrahydro-1H-pyrido[4,3-b]indole]: the “Inhibition … Ser. 5-HT2C” value in assay [1] is given as 67%. For the same compound, the “compound type” value in assay [2] is given as “Type one”. In addition, the “Inhibition … Adren. alpha2A” value in assay [3] is 91%. The “Inhibition of ligand binding, Ser. 5-HT6” value in assay [4] was 85%.

For `CN1CCc2c(c3cc(Cl)ccc3n2CCC2CCCCC2)C1` [Compound 164, 8-chloro-5-(2-cyclohexylethyl)-2,3,4,5-tetrahydro-2-methyl-1H-pyrido[4,3-b]indole], the “Inhibition … Ser. 5-HT2C” value in assay [1] amounted to 95%. The “Inhibition of ligand binding, Ser. 5-HT7” value in assay [5] is 92%. Further, the “Inhibition … Adren. alpha2A” value in assay [3] was 95%. Moreover, in assay [4], the “Inhibition of ligand binding, Ser. 5-HT6” value worked out at 99%.
